Data published in patent US9868715B2 (THE BOARD OF REGENTS OF THE UNIVERSITY OF TEXAS SYSTEMS, priority 2014, dated 2018).

Experiments:
[1] = system: transformed PSC (human pancreatic stellate cells); assay: PSC proliferation, AlamarBlue Cell Viability Assay; type: cell-based; details: for inhibition at 5 µM / inhibition at 10 µM / inhibition at 20 µM: Homo sapiens, mean of at least three independent experiments, NE = No effect, read-out: Inhibitory Effect (%) on PSC proliferation; for IC50: human PSC, 24 h, mean±SEM of at least three experiments, read-out: IC50, inhibition of PSC proliferation; for IC50 / Antiproliferative effect on PSC, result in words: AlamarBlue; for Antiproliferative effect on PSC, result in words: transformed PSC
Method: The calculated lipophilicity (cLogP) and topological polar surface area (tPSA) values of synthesized analogues are listed in Table 1. […] AlamarBlue is a non-toxic reagent that is converted to a highly fluorescent end product by viable cells.
Under an IRB-approved tissue protocol, discarded human resected pancreatic tissue (500 mm^3) was attained fresh from the operating room at the University of Texas Medical Branch. The tissue was minced and plated on a collagen-coated flask (15 μg/mL, Invitrogen) with DMEM (VWR; Radnor, Pa.) supplemented with penicillin 200 U/mL, streptomycin 200 μg/mL, amphotericin B 0.25 μg/mL and gentimicin 50 μg/mL (Invitrogen, Carlsbad Calif.), 10% fetal bovine serum (Lonza, Walkersville, Md.), 1% insulin-transferrin, selenium-ethanolamine (Gibco, Grand Island, N.Y.), and 1% non-essential amino acids (Sigma-Aldrich, St. Louis, Mo.). The human PSC were isolated by the outgrowth method.^41-43 The purity of PSC culture was confirmed by immunohistochemical staining for vimentin, α-smooth muscle actin, glial fibrillar acidic protein, or Oil red O staining. Primary PSC were transformed and immortalized for use in experiments using lentiviral vectors containing SV40 Large T antigen and human telomerase (plasmid #12245 and 12246; Addgene, Cambridge, Mass.). Cultures were maintained in DMEM with 10% FBS, at 37° C. in a humidified 95% O2/5% CO2 atmosphere.
Cell proliferation assay. Transformed PSC (3×10^3) were plated in 96-well plates, in sextuplicate. […] AlamarBlue reagent (10% sample volume, DAL1025) was added to each well per Invitrogen's protocol. Fluorescence was recorded using excitation/emission wavelengths of 544/590 nm and the SpectraMax M2 Microplate Reader (Molecular Devices, Sunnyvale Calif.).
Statistical analysis. Dose-response curves were generated by plotting fluorescence or absorbance versus log (compound concentration). A best-fit curve was created using nonlinear regression, and the IC50 or EC50 determined from the graph (GraphPad Prism 5; GraphPad Software Inc., La Jolla, Calif.). To analyze continuos variables, unpaired student t-tests and one-way ANOVA with Tukey-Kramer multiple comparisons post-test (GraphPad Prism 5). Significance was set at p<0.05.

[2] = system: transformed PSC (human pancreatic stellate cells); assay: PSC apoptosis, Cell Death Detection ELISA PLUS assay; type: cell-based; details: 14 h; for EC50: mean±SEM of at least three experiments
Method: These two representative analogues were also investigated to determine whether the growth inhibition induced by compounds 23 and 24 in PSC was attributed to apoptosis. Apoptosis was determined using the Cell Death Detection ELISA^PLUS assay. This sandwich-enzyme-immunoassay involved antibodies binding to cytoplasmic nucleosomes, which were specific to the process of apoptosis rather than necrosis. […] Next, the dose-response curve was generated (FIG. 3B). The EC50 represented the concentration at which the compound yielded half of the maximal amount of cell death. […] The capacity of the compounds to induce cell death in activated PSC would most likely translate into reduced fibrosis in CP. […] Under an IRB-approved tissue protocol, discarded human resected pancreatic tissue (500 mm^3) was attained fresh from the operating room at the University of Texas Medical Branch. The tissue was minced and plated on a collagen-coated flask (15 μg/mL, Invitrogen) with DMEM (VWR; Radnor, Pa.) supplemented with penicillin 200 U/mL, streptomycin 200 μg/mL, amphotericin B 0.25 μg/mL and gentimicin 50 μg/mL (Invitrogen, Carlsbad Calif.), 10% fetal bovine serum (Lonza, Walkersville, Md.), 1% insulin-transferrin, selenium-ethanolamine (Gibco, Grand Island, N.Y.), and 1% non-essential amino acids (Sigma-Aldrich, St. Louis, Mo.). The human PSC were isolated by the outgrowth method.^41-43 The purity of PSC culture was confirmed by immunohistochemical staining for vimentin, α-smooth muscle actin, glial fibrillar acidic protein, or Oil red O staining. Primary PSC were transformed and immortalized for use in experiments using lentiviral vectors containing SV40 Large T antigen and human telomerase (plasmid #12245 and 12246; Addgene, Cambridge, Mass.). Cultures were maintained in DMEM with 10% FBS, at 37° C. in a humidified […] atmosphere. Cell death assay. Transformed PSC (8×10^3) were plated in 96-well plates in triplicate. […] The Cell Death Detection ELISA^PLUS assay (Roche Applied Science, Indianapolis, Ind.) was used and protocol followed (Version 11.0). Absorbance was measured at 405 nm, using the EL×800 Automated Microplate Reader (Bio-TEK Instruments, Inc., Winooski, Vt.). Statistical analysis. Dose-response curves were generated by plotting fluorescence or absorbance versus log (compound concentration). A best-fit curve was created using nonlinear regression, and the IC50 or EC50 determined from the graph (GraphPad Prism 5; GraphPad Software Inc., La Jolla, Calif.). To analyze continuos variables, unpaired student t-tests and one-way ANOVA with Tukey-Kramer multiple comparisons post-test (GraphPad Prism 5). Significance was set at p<0.05.

| Compound | inhibition at 5 µM [1] [%] | inhibition at 10 µM [1] [%] | inhibition at 20 µM [1] [%] | IC50 [1] [µM] | EC50 [2] [µM] | Antiproliferative effect on PSC, result in words [1] | Concentrations inducing stellate cell toxicity [2] |
| --- | --- | --- | --- | --- | --- | --- | --- |
| O=c1cc(-c2ccc(O)cc2)oc2cc(O)cc(O)c12 [Apigenin, 4′,5,7-trihydroxyflavone, reference compound] | 11 | 34 | 64 | 18.6 ± 1.6 | 24.5 ± 2.5 |  |  |
| COc1cc(OC)c2c(=O)cc(-c3ccc(OCC4CO4)cc3)oc2c1 (stereo not drawn) [Compound 23, 5,7-Dimethoxy-2-(4-oxiranylmethoxyphenyl)-chromen-4-one] | 69 | 89 | 93 | 2.5 ± 0.6 | 9.6 ± 1.8 | highly potent inhibitor suppressing PSC proliferation |  |
| COc1cc(OC)c2c(=O)cc(-c3ccc(OCC(O)CN4CCCCC4)cc3)oc2c1 (stereo not drawn) [Compound 24, 2-(4-(2-Hydroxy-3-piperidin-1-yl-propoxy)phenyl)-5,7-dimethoxy-chromen-4-one] | 34 | 65 | 95 | 8 ± 1.8 | 35.2 ± 5.5 | potent antiproliferative effects | greater than 25 μM |
